Experimental data reported in US8093286B2, “Methods for treatment with bucindolol based on genetic targeting” (The Regents of the University of Colorado, a body corporate, priority 2004, dated 2012).
Structures can show the parent of a compound that is named as a salt.

Test system: advanced heart failure patients
Experiment: proposed bucindolol vs metoprolol CR/XL trial (Study Design II)
Assay type: in vivo, human
Description: In Study Design II (FIG. 28) for an additional study design, patients with symptomatic and advanced heart failure (reinforced by the heart failure hospitalization history over the preceding year; therefore, patients who are Class II at the time of screening are allowed in the trial) and LVEFs≦0.35 (the general description of the BEST Trial population) are initially screened for the absence of the α2c 322-325 DEL polymorphism, in the carrier state (either heterozygous or homozygous). […]
The primary endpoint of the trial is noninferiority against metoprolol CR/XL (TOPROL-XL), using the 95% upper confidence limit (UCL) of the time to mortality plus heart failure hospitalization endpoint hazard ratio that was measured in the MERIT-HF trial (Hjalmarson et al. 2000). […] The 95% upper confidence limit for the hazard ratio (UCL) for bucindolol:metoprolol CR/XL (“noninferiority margin”) has been determined from the formula (Hasselblad et al., 2001) {(UCL bucindolol:metoprolol CR/XL)*(UCL metoprolol CR/XL:placebo)≦1.0}; using the MERIT-HF entire cohort UCL of 0.80 for metoprolol:placebo yields x*0.80≦1.0, or a noninferiority margin x≦1.25. […]

CC(C)(Cc1c[nH]c2ccccc12)NCC(O)COc1ccccc1C#N (centres unmarked) [bucindolol, (2-{2-hydroxy-3{{2-(3-indolyl)-1,1-dimethylethyl}amino}propoxy}-benzonitrile hydrochloride)]
expected hazard ratio bucindolol vs. metoprolol CR/XL, mortality plus HF hospitalization (α2c WT/WT U.S. population, 0.72/0.84): 0.86 | expected hazard ratio bucindolol:metoprolol CR/XL, mortality+HF hospitalizations (β1-389 Arg/Arg + α2c wild type vs MERIT U.S. data, 0.61/0.84): 0.73
